Values belong to the molecule of their own block, whether it stands above or below them. The source made the active and inactive calls. No cut-off for these calls is given here.
Key:
[1] = tested on: NCI-H1373; test: Antiproliferative activity against human NCI-H1373 cells assessed as inhibition of cell viability incubated for 4 days by luminescence based assay; settings: NCI-H1373, 96 h
[2] = molecular target: T1, Protein mono-ADP-ribosyltransferase TIPARP (Homo sapiens, UniProt Q7Z3E1); test: Inhibition of PARP7 (unknown origin) using histone as substrate incubated for 1 hr by chemiluminescence assay
T1 sequence (Q7Z3E1 whole entry): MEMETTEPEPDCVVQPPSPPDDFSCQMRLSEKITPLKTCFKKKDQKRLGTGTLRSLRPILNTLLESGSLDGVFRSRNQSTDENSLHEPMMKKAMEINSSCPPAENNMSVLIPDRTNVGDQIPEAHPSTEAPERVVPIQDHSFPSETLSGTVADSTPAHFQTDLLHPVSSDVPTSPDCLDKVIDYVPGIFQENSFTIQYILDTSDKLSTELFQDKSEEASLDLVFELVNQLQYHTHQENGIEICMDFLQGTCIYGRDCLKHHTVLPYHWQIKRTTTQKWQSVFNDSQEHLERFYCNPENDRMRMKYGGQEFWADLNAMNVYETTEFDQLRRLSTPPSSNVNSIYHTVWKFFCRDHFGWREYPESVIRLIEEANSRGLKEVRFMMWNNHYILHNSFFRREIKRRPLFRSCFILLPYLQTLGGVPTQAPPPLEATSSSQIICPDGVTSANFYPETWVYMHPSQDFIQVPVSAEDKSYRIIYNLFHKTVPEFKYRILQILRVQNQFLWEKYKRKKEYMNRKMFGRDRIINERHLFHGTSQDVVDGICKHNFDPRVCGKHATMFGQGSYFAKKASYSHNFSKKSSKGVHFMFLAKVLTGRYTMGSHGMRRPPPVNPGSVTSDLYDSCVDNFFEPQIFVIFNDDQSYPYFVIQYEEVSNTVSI

[3] = Half life in fasted ICR mouse at 10 mg/kg, po measured for 24 hrs by LC-MS analysis; assay type: ADME, organism-based; settings: in vivo
[4] = AUC in fasted ICR mouse at 10 mg/kg, po measured for 24 hrs by LC-MS analysis; assay type: ADME, organism-based; settings: in vivo
[5] = Oral bioavailability in fasted ICR mouse at 10 mg/kg measured for 24 hrs by LC-MS analysis; assay type: ADME, organism-based; settings: in vivo
[6] = AUC in fasted ICR mouse at 2 mg/kg, iv measured for 24 hrs by LC-MS analysis; assay type: ADME, organism-based; settings: in vivo
[7] = Tmax in fasted ICR mouse at 10 mg/kg, po measured for 24 hrs by LC-MS analysis; assay type: ADME, organism-based; settings: in vivo
[8] = Half life in fasted ICR mouse at 2 mg/kg, iv measured for 24 hrs by LC-MS analysis; assay type: ADME, organism-based; settings: in vivo
[9] = Cmax in fasted ICR mouse at 10 mg/kg, po measured for 24 hrs by LC-MS analysis; assay type: ADME, organism-based; settings: in vivo
[10] = Clearance in fasted ICR mouse at 2 mg/kg, iv measured for 24 hrs by LC-MS analysis; assay type: ADME, organism-based; settings: in vivo
[11] = Volume of distribution at steady state in fasted ICR mouse at 2 mg/kg, iv measured for 24 hrs by LC-MS analysis; assay type: ADME, organism-based; settings: in vivo, read-out: Vdss
[12] = tested on: MDA-MB-436; test: Antiproliferative activity against human MDA-MB-436 cells assessed as inhibition of cell viability at 0.1 uM incubated for 7 days by luminescence based assay; assay type: functional; settings: time 7.0 day
[13] = Toxicity in […] SCID mouse model xenografted with human NCI-H1373 cells assessed as body weight loss at 30 mg/kg, po measured for 21 days; assay type: organism-based; settings: in vivo, 504 h, time 21 day
[14] = tested on: NCI-H1373; test: Antitumor activity against human NCI-H1373 cells xenografted in […] SCID mouse model assessed as tumor growth inhibition at 30 mg/kg, po administered everyday measured after 21 days relative to control; assay type: functional; settings: NCI-H1373, 504 h, time 21 day, read-out: TGI
[15] = Toxicity in […] SCID mouse model xenografted with human NCI-H1373 cells assessed as animal death at 30 mg/kg, po measured for 21 days; assay type: organism-based; settings: in vivo, 504 h, time 21 day
[16] = tested on: RAW264.7; test: Inhibition of PARP7 in mouse RAW264.7 cells assessed as increase in IFN-beta level incubated for 24 hrs by ELISA; assay type: cell-based

- IC50 [1]: 1950 nM
Compound: C[C@@H](COc1cnc(N2CCN3c4ncc(C(F)(F)F)cc4OC[C@@H]3C2)nc1)Nc1cn[nH]c(=O)c1C(F)(F)F

- IC50 [2]: 9.4 nM
- IC50 [1]: 156 nM
Compound: CC(COCCC(=O)N1CCN2c3ncc(C(F)(F)F)cc3OC[C@@H]2C1)Nc1cn[nH]c(=O)c1C(F)(F)F (mixture of isomers)

- IC50 [1]: 694 nM
Compound: C[C@@H](COCCC(=O)N1CCN2c3ncc(F)cc3OCC2C1)Nc1cn[nH]c(=O)c1C(F)(F)F (some centres undefined)

- IC50 [2]: 12.8 nM
- IC50 [1]: 180 nM
Compound: CC(COCCC(=O)N1CCN2c3ncc(C(F)(F)F)cc3OC[C@H]2C1)Nc1cn[nH]c(=O)c1C(F)(F)F (mixture of isomers)

- IC50 [1]: 954 nM
Compound: Cc1cnc2c(c1)OCC1CN(C(=O)CCOC[C@H](C)Nc3cn[nH]c(=O)c3C(F)(F)F)CCN21 (some centres undefined)

- IC50 [1]: 255 nM
Compound: C[C@@H](COCCC(=O)N1CCN2c3ncc(C#N)cc3OCC2C1)Nc1cn[nH]c(=O)c1C(F)(F)F (some centres undefined)

- IC50 [2]: 13.8 nM
- IC50 [1]: 310 nM
Compound: O=C(CCOC[C@@H]1CCCN1c1cn[nH]c(=O)c1C(F)(F)F)N1CCN2c3ncc(C(F)(F)F)cc3OC[C@@H]2C1

- IC50 [1]: 106 nM
Compound: C[C@@H](COCCC(=O)N1CCN2c3ncc(Cl)cc3OCC2C1)Nc1cn[nH]c(=O)c1C(F)(F)F (some centres undefined)

- IC50 [1]: 973 nM
Compound: CC(COC[C@H](C)Nc1cn[nH]c(=O)c1C(F)(F)F)C(=O)N1CCN2c3ncc(C(F)(F)F)cc3OC[C@@H]2C1 (some centres undefined)

- IC50 [2]: 2.1 nM
- IC50 [1]: 88 nM
Compound: C[C@@H](COCCC(=O)N1CCN2c3ncc(C(F)(F)F)cc3OCC2C1)Nc1cn[nH]c(=O)c1C(F)(F)F (mixture of isomers)

- IC50 [2]: 0.71 nM
- IC50 [1]: 6 nM
Compound: O=C(CCOCC1CCN1c1cn[nH]c(=O)c1C(F)(F)F)N1CCN2c3ncc(C(F)(F)F)cc3OC[C@@H]2C1 (some centres undefined)

- IC50 [1]: > 3000 nM
Compound: C[C@@H](CN1CC(C(=O)N2CCN3c4ncc(C(F)(F)F)cc4OC[C@@H]3C2)C1)Nc1cn[nH]c(=O)c1C(F)(F)F

- t1/2 [3]: 120 min
- AUC [4]: 306 ng·h/mL
- bioavailability [5]: 22.3%
- AUC at 24 h [6]: 274 ng·h/mL
- IC50 [2]: 1.86 nM
- Tmax [7]: 15 min
- half-life [8]: 30 min
- Cmax [9]: 408 ng/mL
- clearance [10]: 61 mL/min/kg
- Vd [11]: 0.104 L/kg
- IC50 [1]: 77 nM
Compound: C[C@@H](COCCC(=O)N1CCN2c3ncc(C(F)(F)F)cc3OC[C@@H]2C1)Nc1cn[nH]c(=O)c1C(F)(F)F

- IC50 [2]: 3.3 nM
- IC50 [1]: 85 nM
Compound: C[C@@H](COCCC(=O)N1CCN2c3ncc(C(F)(F)F)cc3OC[C@H]2C1)Nc1cn[nH]c(=O)c1C(F)(F)F

- IC50 [2]: 63 nM
- IC50 [1]: 398 nM
Compound: O=C(CCOC1CC(Nc2cn[nH]c(=O)c2C(F)(F)F)C1)N1CCN2c3ncc(C(F)(F)F)cc3OC[C@@H]2C1 (some centres undefined)

- IC50 [1]: 908 nM
Compound: C[C@@H](CN1CCC(C(=O)N2CCN3c4ncc(C(F)(F)F)cc4OC[C@@H]3C2)C1)Nc1cn[nH]c(=O)c1C(F)(F)F (some centres undefined)

- IC50 [2]: 10.3 nM
- IC50 [1]: 175 nM
Compound: CC(COCCC(=O)N1CCN2c3ncc(C(F)(F)F)cc3OCC2C1)Nc1cn[nH]c(=O)c1C(F)(F)F (racemic)

Compound: C[C@@H](COCCC(=O)N1CCN2c3ncc(C(F)(F)F)cc3OC[C@@H]2C1)Oc1cn[nH]c(=O)c1C(F)(F)F
- Activity [12]: inactive
- t1/2 [3]: 264 min
- Activity [13]: Non-Toxic
- AUC [4]: 1835 ng·h/mL
- bioavailability [5]: 53.9%
- AUC at 24 h [6]: 682 ng·h/mL
- inhibition in vivo at 30 mg/kg [14]: 62.4%
- IC50 [2]: 1.75 nM
- Activity [15]: Non-Toxic
- Tmax [7]: 15 min
- half-life [8]: 102 min
- Cmax [9]: 1840 ng/mL
- clearance [10]: 50.6 mL/min/kg
- Vd [11]: 0.668 L/kg
- inhibition [16]: Active
- IC50 [1]: 15 nM

- t1/2 [3]: 126 min
- AUC [4]: 544 ng·h/mL
- bioavailability [5]: 25.8%
- AUC at 24 h [6]: 421 ng·h/mL
- IC50 [2]: 0.66 nM
- Tmax [7]: 15 min
- half-life [8]: 36 min
- Cmax [9]: 400 ng/mL
- clearance [10]: 49.4 mL/min/kg
- Vd [11]: 0.638 L/kg
- IC50 [1]: 14.8 nM
Compound: O=C(CCOC[C@@H]1CCN1c1cn[nH]c(=O)c1C(F)(F)F)N1CCN2c3ncc(Cl)cc3OC[C@@H]2C1
- Activity [12]: inactive
- inhibition [16]: Active
